According to patent US20260041620A1, “NOVEL AMINO ACID BASED SALTS, COMPOSITIONS AND METHODS FOR TREATING SKIN AND IMPROVING SKIN REJUVENATION AND LONGEVITY” (Sytheon Ltd, priority 2023, published 2026):

Legend:
HDAC1 = HDAC1 (Homo sapiens, UniProt Q13547); details: reported, abcam; cited from earlier work
HDAC7 = biological target: T1, HDAC7 (Homo sapiens, UniProt Q8WUI4); details: reported, abcam; cited from earlier work
T1 sequence (Q8WUI4 1-952): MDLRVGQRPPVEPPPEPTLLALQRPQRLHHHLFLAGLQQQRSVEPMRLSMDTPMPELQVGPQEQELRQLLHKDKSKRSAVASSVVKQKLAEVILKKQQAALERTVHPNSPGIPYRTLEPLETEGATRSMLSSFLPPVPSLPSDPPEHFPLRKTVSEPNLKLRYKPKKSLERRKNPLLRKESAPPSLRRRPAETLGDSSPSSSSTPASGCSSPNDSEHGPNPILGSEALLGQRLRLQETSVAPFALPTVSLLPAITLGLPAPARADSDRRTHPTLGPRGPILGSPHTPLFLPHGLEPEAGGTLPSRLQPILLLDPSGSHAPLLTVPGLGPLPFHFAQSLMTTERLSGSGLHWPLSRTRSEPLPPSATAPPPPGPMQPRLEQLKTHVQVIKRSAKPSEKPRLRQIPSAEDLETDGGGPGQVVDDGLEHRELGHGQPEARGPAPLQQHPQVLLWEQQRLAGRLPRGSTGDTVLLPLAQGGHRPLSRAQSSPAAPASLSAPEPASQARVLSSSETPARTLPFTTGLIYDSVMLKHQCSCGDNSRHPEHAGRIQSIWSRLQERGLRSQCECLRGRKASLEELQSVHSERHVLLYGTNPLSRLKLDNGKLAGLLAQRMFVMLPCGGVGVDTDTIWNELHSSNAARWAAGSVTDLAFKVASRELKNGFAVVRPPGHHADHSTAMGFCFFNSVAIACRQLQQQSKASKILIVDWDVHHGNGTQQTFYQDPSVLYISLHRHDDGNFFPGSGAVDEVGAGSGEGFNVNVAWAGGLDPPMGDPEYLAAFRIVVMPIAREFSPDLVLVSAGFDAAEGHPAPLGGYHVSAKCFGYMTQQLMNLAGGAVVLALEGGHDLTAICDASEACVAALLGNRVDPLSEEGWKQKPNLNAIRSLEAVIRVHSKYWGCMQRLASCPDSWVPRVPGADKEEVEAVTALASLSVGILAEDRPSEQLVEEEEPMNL

HDAC10 = biological target: T2, HDAC10 (Homo sapiens, UniProt Q969S8); details: reported, abcam; cited from earlier work
T2 sequence (Q969S8 1-669): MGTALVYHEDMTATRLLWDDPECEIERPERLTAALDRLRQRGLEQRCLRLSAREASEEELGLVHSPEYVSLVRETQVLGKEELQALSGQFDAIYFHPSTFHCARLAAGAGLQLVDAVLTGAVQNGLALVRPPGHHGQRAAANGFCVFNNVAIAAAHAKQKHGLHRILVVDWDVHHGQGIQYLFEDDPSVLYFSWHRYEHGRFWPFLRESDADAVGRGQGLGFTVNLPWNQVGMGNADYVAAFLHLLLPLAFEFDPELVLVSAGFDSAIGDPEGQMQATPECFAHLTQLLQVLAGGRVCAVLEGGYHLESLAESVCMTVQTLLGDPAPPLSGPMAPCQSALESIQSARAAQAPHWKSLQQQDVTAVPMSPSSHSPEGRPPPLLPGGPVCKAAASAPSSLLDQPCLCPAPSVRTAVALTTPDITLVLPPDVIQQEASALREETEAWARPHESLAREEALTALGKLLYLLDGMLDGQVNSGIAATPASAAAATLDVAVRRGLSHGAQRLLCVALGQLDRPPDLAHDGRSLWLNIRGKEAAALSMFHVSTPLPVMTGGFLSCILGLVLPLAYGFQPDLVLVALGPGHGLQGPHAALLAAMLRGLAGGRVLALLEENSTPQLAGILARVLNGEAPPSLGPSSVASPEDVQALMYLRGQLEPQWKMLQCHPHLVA

COX-2 = biological target: T3, COX-2 (Homo sapiens, UniProt P35354); assay: biochemical
T3 sequence (P35354 18-604): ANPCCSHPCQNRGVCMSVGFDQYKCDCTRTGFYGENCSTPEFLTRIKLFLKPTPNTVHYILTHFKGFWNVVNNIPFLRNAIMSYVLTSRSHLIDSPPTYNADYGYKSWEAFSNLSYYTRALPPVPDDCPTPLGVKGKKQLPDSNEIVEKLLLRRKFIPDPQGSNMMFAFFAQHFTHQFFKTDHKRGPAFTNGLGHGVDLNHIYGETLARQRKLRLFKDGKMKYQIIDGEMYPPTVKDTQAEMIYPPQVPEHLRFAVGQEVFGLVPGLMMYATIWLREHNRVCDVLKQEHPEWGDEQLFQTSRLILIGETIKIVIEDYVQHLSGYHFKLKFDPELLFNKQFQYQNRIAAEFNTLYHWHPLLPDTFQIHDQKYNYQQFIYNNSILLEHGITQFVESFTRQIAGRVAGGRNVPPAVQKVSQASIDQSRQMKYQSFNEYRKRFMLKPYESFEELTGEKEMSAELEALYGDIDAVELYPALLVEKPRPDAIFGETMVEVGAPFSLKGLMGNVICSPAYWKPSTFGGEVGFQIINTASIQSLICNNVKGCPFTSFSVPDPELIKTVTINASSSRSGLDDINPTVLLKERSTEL
Method: A 0.1 gram sample of each test material was dissolved in 1 mL propanediol make a stock solution, each of which was subject to 1 to 2 serial dilutions using buffer for use in determining the IC50 Testing and analysis was performed in accordance with the protocol of the COX-2 Kt (Cayman Catalog #701080) (Cayman catalog #62160).

Chain of HDAC1 (Q13547 whole entry, species assumed): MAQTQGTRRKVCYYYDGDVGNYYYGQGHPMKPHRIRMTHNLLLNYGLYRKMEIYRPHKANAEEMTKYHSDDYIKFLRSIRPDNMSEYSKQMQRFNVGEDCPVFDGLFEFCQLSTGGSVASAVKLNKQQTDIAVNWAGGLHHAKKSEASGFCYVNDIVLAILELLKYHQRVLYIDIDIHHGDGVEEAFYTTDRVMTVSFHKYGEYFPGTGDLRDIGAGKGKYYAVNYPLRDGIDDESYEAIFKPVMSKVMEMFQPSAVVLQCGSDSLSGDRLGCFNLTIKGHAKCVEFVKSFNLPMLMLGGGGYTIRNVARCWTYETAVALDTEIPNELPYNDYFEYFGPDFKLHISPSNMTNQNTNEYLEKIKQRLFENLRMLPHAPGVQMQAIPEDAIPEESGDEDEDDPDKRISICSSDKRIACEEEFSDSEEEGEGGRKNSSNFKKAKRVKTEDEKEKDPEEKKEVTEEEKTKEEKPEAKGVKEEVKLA

Compound: CCCC(=O)[O-].[Na+] [Sodium butyrate, reference compound]
- IC50 (HDAC1): 300 µM
- IC50 (HDAC7): 300 µM
- inhibition of HDAC10 (HDAC10): no inhibition
- IC50 (COX-2): 2670 µM
